Read-outs that look alike come from different tables or passages of the source.
Assays:
GSK3β kinase = GSK3β kinase (Homo sapiens (Human), UniProt P49841); assay: GSK3β kinase assay (Ser/Thr 09 peptide Z-lyte, FRET); format: biochemical; details: method text calls the value IC50;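 note: Coumarin/fluorescein emission ratio converted to percent phosphorylation against unphosphorylated (0%) and phosphorylated (100%) controls, 1 h compound incubation at room temperature, 11-point threefold dilutions from 10 µM, run in duplicate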
[1] = system: Tau phosphorylation at Ser396 (pSer396), SH-SY5Y cells; assay: Tau phosphorylation at Ser396 (pSer396) in SH-SY5Y cells, ELISA/western blot; format: cell-based, human; details: Homo sapiens;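 note: cell lysates probed for reduced Tau pSer396 via ELISA (colorimetric) or western blot (chemiluminescence), both with one shared pSer396 antibody, EC50 for lowering phosphorylation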
[2] = system: LL29 cells (primary human fibroblasts derived from IPF patients), α-smooth muscle actin; assay: Inhibition of fibrotic process: αSMA in TGF-β1-treated primary human fibroblasts from IPF patients (LL29 cells); format: cell-based; details: Homo sapiens, Fibroblast; for EC50: 96 h, % αSMA-positive LL29 cells, TGF-β1 20 ng/mL, 4 days; for inhibition at 10 µM: read-out: percent inhibition at 10 μM
In short: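 Read-out is the percentage of αSMA-positive cells by high-content imaging, excluding SYTOX green-positive dead/apoptotic cells, normalized to TGF-β1-only wells on the same plate. LL29 cells were exposed for 4 days at 37 °C to 20 ng/mL TGF-β1 plus 11-point, 2-fold compound dilutions in 0.1% DMSO.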

IL-6 = IL-6 inhibition in LPS-stimulated human peripheral blood mononuclear cells (HTRF); format: cell-based; details: Homo sapiens, PBMC; for EC50: IL-6, LPS-stimulated huPBMCs, HTRF; for inhibition at 10 µM: read-out: percent value in parentheses below EC50 >10
In short: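 EC50 from a 4-parameter fit of DMSO-normalized HTRF (665/620 nm) IL-6 signal, duplicates. Compound was added to fresh human PBMCs in 1% FBS RPMI for 2 h (top 10 μM, 3-fold, 0.25% DMSO) before 22 h stimulation with LPS at 50 ng/mL, 37 °C.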

DYRK1A kinase = DYRK1A kinase (Homo sapiens (Human), UniProt Q13627); assay: DYRK1A kinase assay (Ser/Thr 18 peptide Z-lyte, FRET); details: DYRK1A kinase; method text calls the value IC50
[3] = SH-SY5Y cells, overnight (16-18 h), read-out: pSer396 Tau EC50
[4] = SH-SY5Y, read-out: pSer396 Tau EC50 (μM)

Sequence of GSK3β kinase (P49841 whole entry): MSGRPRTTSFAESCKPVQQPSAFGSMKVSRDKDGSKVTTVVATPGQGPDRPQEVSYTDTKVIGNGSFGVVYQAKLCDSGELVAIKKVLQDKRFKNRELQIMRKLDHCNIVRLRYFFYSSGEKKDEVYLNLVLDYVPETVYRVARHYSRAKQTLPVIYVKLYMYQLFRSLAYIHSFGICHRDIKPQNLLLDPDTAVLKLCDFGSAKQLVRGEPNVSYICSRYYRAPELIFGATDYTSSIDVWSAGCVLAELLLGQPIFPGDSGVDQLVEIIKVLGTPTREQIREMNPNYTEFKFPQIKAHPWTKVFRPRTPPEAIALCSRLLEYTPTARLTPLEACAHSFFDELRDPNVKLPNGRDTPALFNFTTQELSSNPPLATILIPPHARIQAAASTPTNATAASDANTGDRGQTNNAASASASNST

| Structure (SMILES) | EC50 (GSK3β kinase) [nM] | EC50 [1, 3] [µM] | EC50 (IL-6) [nM] | EC50 (DYRK1A kinase) [nM] | EC50 [2] [nM] | EC50 [1, 4] [µM] | inhibition at 10 µM (IL-6) [%] | inhibition at 10 µM [2] [%] |
| --- | --- | --- | --- | --- | --- | --- | --- | --- |
| Cc1nnc(-c2ccc3cnc(NC(=O)[C@H]4CC[C@H](N(C)C)CC4)cc3c2)s1 [Compound 22, trans-4-(Dimethylamino)-N-(6-(5-methyl-1,3,4-thiadiazol-2-yl)isoquinolin-3-yl)cyclohexane-1-carboxamide] | 22 | 0.126 | 6660 | 5 | 602 | – | – | – |
| CN1CC2CCC(C1)N2C(=O)Nc1cc2cc(-c3cnn(C)c3)ccc2cn1 [Compound 61, 3-Methyl-N-(6-(1-methyl-1H-pyrazol-4-yl)isoquinolin-3-yl)-3,8-diazabicyclo[3.2.1]octane-8-carboxamide] | 9210 | – | > 10000 | 7 | 2770 | > 10 | 5.2 | – |
| Cc1nnc(-c2ccc3cnc(NC(=O)N4C5CCC4CN(C)C5)cc3c2)s1 [Compound 108, 3-Methyl-N-(6-(5-methyl-1,3,4-thiadiazol-2-yl)isoquinolin-3-yl)-3,8-diazabicyclo[3.2.1]octane-8-carboxamide] | 671 | – | > 10000 | 10 | > 10000 | > 10 | 4.1 | 18.2 |
| Cc1nnc(-c2ccc3cnc(NC(=O)N4[C@@H]5CC[C@H]4C[C@H](NCCC(F)(F)F)C5)cc3c2)s1 [Compound 153, (1R,5S)-N-(6-(5-Methyl-1,3,4-thiadiazol-2-yl)isoquinolin-3-yl)-3-exo-((3,3,3-trifluoropropyl)amino)-8-azabicyclo[3.2.1]octane-8-carboxamide] | 532 | – | > 10000 | 28 | > 10000 | > 10 | 9 | 9 |
| Cc1ncc(-c2ccc3cnc(NC(=O)[C@H]4CC[C@H](NCCF)CC4)cc3c2)o1 [Compound 155, trans-4-((2-fluoroethyl)amino)-N-(6-(2-methyloxazol-5-yl)isoquinolin-3-yl) cyclohexane-1-carboxamide] | 668 | 0.384 | 1060 | 8 | 1060 | – | – | – |
| Cc1nnc(-c2ccc3cnc(NC(=O)N4[C@@H]5CC[C@H]4C[C@@H](NCCC(F)(F)F)C5)cc3c2)s1 [Compound 195, (1R,5S)-cis-N-(6-(5-methyl-1,3,4-thiadiazol-2-yl)isoquinolin-3-yl)-3-((3,3,3-trifluoropropyl)amino)-8-azabicyclo[3.2.1]octane-8-carboxamide] | 1250 | – | > 10000 | 5 | > 10000 | > 10 | 23.4 | 23.4 |

Now from value to compound, other results behind:

| EC50 (GSK3β kinase) [nM] | EC50 [1, 3] [µM] | EC50 (IL-6) [nM] | EC50 (DYRK1A kinase) [nM] | Structure (SMILES) | EC50 [2] [nM] | EC50 [1, 4] [µM] | inhibition at 10 µM (IL-6) [%] | inhibition at 10 µM [2] [%] |
| --- | --- | --- | --- | --- | --- | --- | --- | --- |
| 7 | 0.058 | 9570 | 6 | Cc1cn2c(n1)CN(C(=O)Nc1cc3cc(-c4nnc(C)s4)ccc3cn1)CC2 [Compound 58, 2-Methyl-N-(6-(5-methyl-1,3,4-thiadiazol-2-yl)isoquinolin-3-yl)-5,6-dihydroimidazo[1,2-a]pyrazine-7(8H)-carboxamide] | 788 | – | – | – |
| 1870 | > 10 | > 10000 | 7 | C[C@@H]1CN(C(=O)Nc2cc3cc(-c4cnn(C)c4)ccc3cn2)CCN1C [Compound 67, (R)-3,4-Dimethyl-N-(6-(1-methyl-1H-pyrazol-4-yl)isoquinolin-3-yl) piperazine-1-carboxamide] | > 10000 | – | 29.6 | 5.2 |
| 320 | 0.323 | 1110 | 17 | COCCN[C@H]1CC[C@H](C(=O)Nc2cc3cc(-c4cnc(C)o4)ccc3cn2)CC1 [Compound 106, trans-4-((2-Methoxyethyl)amino)-N-(6-(2-methyloxazol-5-yl)isoquinolin-3-yl)cyclohexane-1-carboxamide] | 707 | – | – | – |
| 194 | – | 1210 | 6 | COCCN[C@H]1CC[C@H](C(=O)Nc2cc3cc(-c4cnn(C)c4)ccc3cn2)CC1 [Compound 196, trans-4-((2-Methoxyethyl)amino)-N-(6-(1-methyl-1H-pyrazol-4-yl)isoquinolin-3-yl)cyclohexane-1-carboxamide] | 184 | – | – | – |
| 4500 | 4.5 | > 10000 | 24 | Cc1nnc(-c2cc(F)c3cnc(NC(=O)N(C)C4CCN(C)CC4)cc3c2)s1 [Compound 227, 3-(8-Fluoro-6-(5-methyl-1,3,4-thiadiazol-2-yl)isoquinolin-3-yl)-1-methyl-1-(1-methylpiperidin-4-yl)urea] | – | – | 4.9 | – |
| 255 | 6.4 | > 10000 | 12 | CN1CCC(N(C)C(=O)Nc2cc3cc(-c4cn(C)nn4)cc(F)c3cn2)CC1 [Compound 228, 3-(8-Fluoro-6-(1-methyl-1H-1,2,3-triazol-4-yl)isoquinolin-3-yl)-1-methyl-1-(1-methylpiperidin-4-yl)urea] | 9980 | – | 3.3 | – |
| 3640 | – | > 10000 | 21 | CN1CCC(N(C)C(=O)Nc2cc3cc(-c4cnn(C)c4)cc(F)c3cn2)CC1 [Compound 230, 3-(8-Fluoro-6-(1-methyl-1H-pyrazol-4-yl)isoquinolin-3-yl)-1-methyl-1-(1-methylpiperidin-4-yl)urea] | 6330 | – | 36.6 | – |
| 2820 | – | 8280 | 16 | Cc1ncc(-c2ccc3cnc(NC(=O)N(C)C4CCN(C)CC4)cc3c2)o1 [Compound 231, 1-Methyl-3-(6-(2-methyloxazol-5-yl)isoquinolin-3-yl)-1-(1-methylpiperidin-4-yl)urea] | 2950 | – | – | – |
